Results reported in patent US11655492B2, “Activated formylglycine-generating enzymes and methods of producing and using the same” (R.P. Scherer Technologies, LLC, priority 2015, dated 2023).
“And” between values parts separate entries of the source, which are not always exact repeats. Equal values may be shown once. “Also recorded” adds a separate entry of the source. Read-outs that look alike come from different tables or passages of the source.

Legend:
FGE = biological target: T1, FGE (Homo sapiens, UniProt Q8NBK3); test: FGE reaction mixtures with reductants or additives (product formation); type: biochemical; conditions: for rate of product formation: reducing agent used as stoichiometric reductant, in large excess
T1 construct: made in house
T1 sequence (Q8NBK3 with tags, fused parts or gaps isoform Q8NBK3-4): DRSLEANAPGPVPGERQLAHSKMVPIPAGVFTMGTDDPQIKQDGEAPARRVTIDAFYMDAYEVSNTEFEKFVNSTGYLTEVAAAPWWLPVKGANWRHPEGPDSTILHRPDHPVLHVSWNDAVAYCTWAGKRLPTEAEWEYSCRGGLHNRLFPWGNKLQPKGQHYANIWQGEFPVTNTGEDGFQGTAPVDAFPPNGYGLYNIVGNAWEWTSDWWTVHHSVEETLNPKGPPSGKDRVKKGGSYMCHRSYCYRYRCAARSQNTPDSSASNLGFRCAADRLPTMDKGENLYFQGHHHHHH
Description: The specific activity of FGE was measured using a discontinuous enzymatic activity assay. […] The rate of reaction was determined by integrating the peak areas at 215 nm of the substrate cysteine (Csub) and product (fGly) peptides on reversed-phase HPLC. […] Each aqueous reaction solution (120 μL) contained Csub (100 μM), FGE (0.1-1 μM), DTT (1 mM), and buffer (25 mM TEAM, pH 9). A single time course included 5 data points collected at evenly spaced intervals. The reaction was initiated upon addition of FGE stock solution and vortexing for 3 s. The reaction vial was vortexed at 1,500 RPM and 25° C. in a thermomixer R (Eppendorf). Time points were hand quenched by adding 20 μL of reaction mixture to 2 μL of 1 M HCl using a micropipettor. After completion of the reaction, each time point was analyzed by RP-HPLC (see below).
The conversion of Cys to fGly used a 2 H^+/2 e^− oxidation of the substrate Cys thiol as well as exchange of sulfur for oxygen. […] However, because O2 is a 4 H^+/4 e^− acceptor, a reducing agent was used to provide a second equivalent of 2 H^+ and 2 e^−, completing the reduction from O2 to 2 mol H2O. […] A mixture of reductant (DTT) and O2 was used for routine activity measurements.

[1] = as measured versus glutathione disulfide; cited from earlier work
Sc-FGE = Sc-FGE (Streptomyces coelicolor, UniProt Q9F3C7); type: biochemical, S. coelicolor
Hs-cFGE = biological target: T2, Hs-cFGE (Homo sapiens, UniProt Q8NBK3)
T2 sequence (Q8NBK3 with tags, fused parts or gaps isoform Q8NBK3-4): T1 sequence (Q8NBK3 with tags, fused parts or gaps isoform Q8NBK3-4)

recombinant human FGE = biological target: T3, recombinant human FGE (Homo sapiens, UniProt Q8NBK3); test: In vivo conversion in CHO cells expressing recombinant human FGE and αHER2 mAb, additives in culture medium
T3 sequence (Q8NBK3 34-374): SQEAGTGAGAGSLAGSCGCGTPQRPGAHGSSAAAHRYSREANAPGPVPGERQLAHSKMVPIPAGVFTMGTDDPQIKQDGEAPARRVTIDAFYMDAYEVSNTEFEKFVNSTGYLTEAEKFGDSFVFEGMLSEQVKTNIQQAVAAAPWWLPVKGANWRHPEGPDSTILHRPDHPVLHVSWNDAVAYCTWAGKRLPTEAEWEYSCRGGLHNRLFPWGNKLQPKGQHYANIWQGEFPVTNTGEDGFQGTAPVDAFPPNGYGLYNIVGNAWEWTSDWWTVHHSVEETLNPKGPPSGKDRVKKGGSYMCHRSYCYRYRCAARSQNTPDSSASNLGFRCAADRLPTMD
Description: The effect on conversion in the presence of Cu^2+ (copper sulfate) in the cell culture medium of mammalian cells expressing FGEs and proteins that include FGE recognition sites was investigated. CHO cells expressing a recombinant human FGE and recombinant αHER2 mAb (heavy and light chain in same cell) containing the FGE recognition sequence LCTPSR (SEQ ID NO:4) were cultured FortiCHO media with the CellBoost4 feed, Efficient Feed C, and Efficient Feed C, supplemented with glucose and/or galactose.
The experimental conditions were the same as those used in the Cu^2+ experiments above.

human FGE = human FGE (Homo sapiens, UniProt Q8NBK3); test: Effect of stimulators and inhibitors of oxidative phosphorylation on conversion; type: cell-based; conditions: DCA 0-50,000 μM; rotenone 0-15,000 nM with Cu^2+
Description: Experiments were performed to determine the effect of stimulators and inhibitors of oxidative phosphorylation on conversion efficiency for human FGE, as compared to Cu^2+.
(§2) Several experiments were run treating cells with DCA at several concentrations (DCA: 0 μM; 16 μM; 80 μM; 400 μM; 2000 μM; 10,000 μM; and 50,000 μM) and treating cells with Cu^2+ (copper sulfate) and rotenone (Rotenone: 0 nM; 5 nM; 24 nM; 120 nM; 600 nM; 3000 nM; and 15,000 nM) at several concentrations. Cells were plated and 10 μL of DCA or rotenone was added for a 4 hour treatment. Cells were equilibrated to room temperature 100 μL/well of Cell titerglo reagent (Promega) was added to each well. The plates were shaken of 2 min, incubated at room temperature for 10 min, and then read on a plate reader.

ATP production = ATP production dose response (Cell titerglo, 4 hour treatment); type: cell-based
Description: as §2

[2] = test system: IgG containing the aldehyde tag; test: In vitro conversion of intact mAb with FGE, fGly by LC-MRM/MS; type: biochemical
Description: DTT (20 mM) was added to a solution of mAb (20 μg) in buffered aqueous solution (25 mM NH4HCO3) to a final volume of 20 μL. The tube containing the sample was incubated at 37° C. for 15 min at 1500 RPM. Then, HCl (50 mM) was added to the solution and the tube was vortexed until mixed. Next, ammonium bicarbonate (100 mM) was added to the solution and the tube was vortexed until mixed. Trypsin (1 μg) and iodoacetamide (50 mM) were added, and the tube was incubated at 37° C. and 1500 RPM for 60 min in the dark. Finally, sodium citrate (150 mM, pH 5.5) and methoxylamine (100 mM) were added to the solution, and the tube was incubated at 37° C. for 16 h. The processed sample was then analyzed by LC-MRM/MS. The MRM transitions included modifications of the Cys-containing peptide including: cysteine, cysteine modified with iodoacetamide, formylglycine, formylglycine hydrate (including loss of water in the collision cell), and formylglycine methyl oxime. The abundance of each species was defined by its 5 most intense precursor/product ion pairs, which were integrated to give the total signal and relative fractions of each component. In the optimized digestion and capping procedure described above, unreacted Cys, fGly, or fGly-hydrate above background was not detected, observing only carboxyacetamidomethyl Cys (CAM) and the methyl oxime of fGly (MeOx). […]

[3] = test system: 14 amino acid peptide ALCTPSRGSLFTGR (SEQ ID NO:8); test: Discontinuous FGE activity assay on peptide substrate (RP-HPLC); type: biochemical
Description: [formula] where Et is the total enzyme in solution, and kcat and KM are the standard enzymatic parameters specified by the STRENDA commission. Units of enzyme specific activity are the katal, where 1 kat=1 mol·s^−1. Kinetic parameters were determined from nonlinear regression of [substrate] v. initial velocity using GraphPad prism.
The specific activity of FGE was measuring using a discontinuous enzymatic activity assay. The substrate for FGE was a 14 amino acid peptide containing the consensus sequence (H2N-[…]-COOH (SEQ ID NO:8)). The rate of reaction was determined by integrating the peak area at 215 nm of the starting material (Cys) and product (fGly) containing peptides on reversed-phase HPLC. The identity of product (and side product) peaks were determined by RP-HPLC MS/MS. Each aqueous reaction solution (60 μL) contained substrate peptide (100 μM), FGE (1 μM), DTT (1 mM), and buffer (25 mM triethanolamine, pH 9). A single time course consisted of 5 data points collected every 2 minutes. The reaction was initiated upon addition of FGE stock solution and vortexing for 3 s. Time points were quenched by diluting 10 μL of reaction mixture into 1 μL of 1 M HCl by hand with a micropipettor. After completion of the reaction, each time point was analyzed by RP-HPLC.
(§1) Substrate, product, and side products of the FGE substrate peptide […] (SEQ ID NO:8) were separated on RP-HPLC over 7 min with isocratic 18% MeCN in water containing 0.1% TFA. The integrated area of the fGly (2.1 min), Cys (3.3 min), βME-DS (3.6 min), and Cys-DS (6.2 min) forms of the substrate were used to calculate total area and each fraction thereof.
The specific activity of FGE was measured using a discontinuous enzymatic activity assay. The substrate for FGE was a 14 amino acid peptide containing the CXPXR consensus sequence ([…] (SEQ ID NO:8)). The rate of reaction was determined by integrating the peak areas at 215 nm of the substrate cysteine (Csub) and product (fGly) peptides on reversed-phase HPLC. The identities of product (and side product) peaks were determined by RP-HPLC MS/MS (see below). Each aqueous reaction solution (120 μL) contained Csub (100 μM), FGE (0.1-1 μM), DTT (1 mM), and buffer (25 mM TEAM, pH 9). A single time course included 5 data points collected at evenly spaced intervals. The reaction was initiated upon addition of FGE stock solution and vortexing for 3 s. The reaction vial was vortexed at 1,500 RPM and 25° C. in a thermomixer R (Eppendorf). Time points were hand quenched by adding 20 μL of reaction mixture to 2 μL of 1 M HCl using a micropipettor. After completion of the reaction, each time point was analyzed by RP-HPLC (see below).
as §1, with “integrated areas” for “integrated area”, “min), Csub” for “min), Cys”, “min), the Csub/βME disulfide (Csub-βME, 3.6” for “min), βME-DS (3.6”, “and substrate/substrate disulfide (Csub-Csub, 6.1” for “and Cys-DS (6.2”
Individual FGE reactions were initiated by rapidly mixing FGE into a premixed buffered solution of Csub and reducing agent. It was assumed that all buffered solutions contained oxygen at ˜270 μM at 25° C. (based upon Henry's law). Time points were chemically quenched by hand with HCl. […]. The identities of both the Cys- and fGly-containing peptides were confirmed by LC-MS/MS (FIG. 11). These assignments were then correlated with HPLC retention times (FIG. 14, panel a). The integrated peak areas of substrate and product were used to calculate the initial velocity of FGE (FIG. 14, panel b) using the method described by Boeker (Biochem. J., (1984), 223, 15; and Biochem. J., (1985), 226, 29).

[4] = other ion sources: iron sulfate 0.1 mM or 0.5 mM Day 3, MnCl2 50 uM or 10 uM Day 0, ZnCl2 50 uM Day 0
[5] = nonlinear regression to Michaelis-Menten equation

Sequence of Sc-FGE (Q9F3C7 whole entry): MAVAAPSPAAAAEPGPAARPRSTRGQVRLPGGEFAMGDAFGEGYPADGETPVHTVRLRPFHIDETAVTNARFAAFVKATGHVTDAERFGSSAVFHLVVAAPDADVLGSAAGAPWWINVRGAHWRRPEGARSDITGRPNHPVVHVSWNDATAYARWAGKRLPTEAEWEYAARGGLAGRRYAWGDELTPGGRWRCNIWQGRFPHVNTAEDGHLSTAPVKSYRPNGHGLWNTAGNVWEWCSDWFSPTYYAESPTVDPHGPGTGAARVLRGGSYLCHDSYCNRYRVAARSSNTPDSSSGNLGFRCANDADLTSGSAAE

## O[C@H](CS)[C@H](O)CS (racemic) [DTT, dithiothreitol]
FGE
  rate of product formation: 3.27 min⁻¹
[1]
  thiol-disulfide exchange rate constant k: 6×10^5
Sc-FGE; activated Sc-FGE, reductant and/or chelator, 15 mM each, 1 h, 37° C.
  effect of pretreatment of activated enzyme on specific activity: do not change
Sc-FGE; excess (100 molar equiv), 1 h at 25° C., reagent removed by gel filtration
  effect of pretreatment on specific activity: did not change
Hs-cFGE; 20 mM reducing agent on activated Hs-cFGE
  effect of treatment on specific activity: unchanged specific activity

## O=C1O[C@H]([C@@H](O)CO)C(=O)C1=O [DHAA, (L)-dehydroascorbic acid]
Sc-FGE
  effect of pretreatment on specific activity: did not change

## O=C(O)CN(CCN(CC(=O)O)CC(=O)O)CC(=O)O [EDTA, Ethylenediaminetetraacetic acid]
Sc-FGE
  effect of pretreatment of activated enzyme on specific activity: do not change; also recorded: did not change
Hs-cFGE; copper-treated Hs-cFGE, EDTA 5 molar equiv or KCN
  effect of pretreatment of activated enzyme on catalytic activity: did not change

## OO [H2O2, hydrogen peroxide]
FGE; additive in the in vitro FGE reaction mixture
  effect on product formation when added directly to the reaction: halted the reaction

## [Cl][Mn][Cl] [MnCl2]
Recombinant human FGE; [4]
  effect on conversion of the target polypeptide: did not effect a detectable or significant increase

## O=C(O)CCP(CCC(=O)O)CCC(=O)O [TCEP, tris(carboxyethyl)phosphine]
Sc-FGE
  effect of pretreatment of activated enzyme on specific activity: do not change
Hs-cFGE
  effect of treatment on specific activity: unchanged specific activity

## [Cl-].[Cl-].[Zn+2] [ZnCl2]
Recombinant human FGE; [4]
  effect on conversion of the target polypeptide: did not effect a detectable or significant increase

## O=S(=O)([O-])[O-].[Fe+2] [iron sulfate, iron(II) sulfate]
Recombinant human FGE
  effect on conversion of the target polypeptide: did not effect a detectable or significant increase

## CC(O)C(=O)O (stereo not drawn) [lactate]
Recombinant human FGE; potential stimulators of lactate consumption, lactate or pyruvate 1.5 g/L with feeds
  effect on conversion efficiency of the FGE: did not increase conversion efficiency

## C=C(C)[C@H]1Cc2c(ccc3c2O[C@@H]2COc4cc(OC)c(OC)cc4[C@@H]2C3=O)O1 [rotenone, Rotenone]
Human FGE
  effect on conversion: no effect on conversion
ATP production
  ATP production: affected ATP production as expected

## OCCS [βME, β-mercaptoethanol]
FGE
  rate of product formation: 5.07 min⁻¹
[1]
  thiol-disulfide exchange rate constant k: 1

B1: Hs-cFGE: catalytic core of H. sapiens FGE with C-terminal His6 tag (SEQ ID NO. 11), expressed in Hi5 insect cells (protein)
chain: T1 sequence (Q8NBK3 with tags, fused parts or gaps isoform Q8NBK3-4)
[2]; after in vitro conversion
  fGly content in the antibody: 95-100%
[2]; in vitro conversion of aldehyde tagged mAb
  conversion yield from Cys to fGly: 90-100% and > 90%
[3]; 5 molar equiv of CuSO4, 1 h at 25° C., activated vs as purified
  increase of specific activity on activation: 3
[3]; after activation with 5 molar equiv of CuSO4, 1 h at 25° C., excess copper removed
  specific activity: 3,050±115 pkat·mg^−1
[3]; as purified from cell culture, not activated
  specific activity: 1,143 pkat·mg^−1 and 1,143±84 pkat·mg^−1
[3]; from kcat/KM
  efficiency relative to bacterial counterpart (Sc-FGE): approximately 10 fold
[3]; [5]
  Km: 0.34 µM
  kcat: 0.101 s⁻¹
